Reference: ChEMBL document CHEMBL4422644, “Synthesis and evaluation of α-aminoacyl amides as antitubercular agents effective on drug resistant tuberculosis” (Eur J Med Chem, 2019)
Values after ≈ are worked out from the molar mass of the structure shown.

Tests used:
Type in all cases: functional
[1] = system: Mycobacterium tuberculosis; experiment: Antitubercular activity against Mycobacterium tuberculosis H37Rv after 7 days by alamar blue assay; conditions: 168 h
Pseudomonas aeruginosa = experiment: Antibacterial activity against Pseudomonas aeruginosa ATCC 27853 after 24 hrs; conditions: ATCC 27853, 24 h
Acinetobacter baumannii = experiment: Antibacterial activity against Acinetobacter baumannii ATCC BAA-1605 after 24 hrs; conditions: ATCC BAA-1605, 24 h
Klebsiella pneumoniae = experiment: Antibacterial activity against Klebsiella pneumoniae ATCC BAA-1705 after 24 hrs; conditions: ATCC BAA-1705, 24 h
Staphylococcus aureus = experiment: Antibacterial activity against Staphylococcus aureus ATCC 29213 after 24 hrs; conditions: ATCC 29213, 24 h
[2] = system: Mycolicibacterium fortuitum; experiment: Antibacterial activity against Mycobacterium fortuitum after 7 days by alamar blue assay; conditions: 168 h
[3] = system: Mycobacteroides abscessus; experiment: Antibacterial activity against Mycobacterium abscessus after 7 days by alamar blue assay; conditions: 168 h
Mycobacteroides chelonae = experiment: Antibacterial activity against Mycobacterium chelonae after 7 days by alamar blue assay; conditions: 168 h
Escherichia coli = experiment: Antibacterial activity against Escherichia coli ATCC 25922 after 24 hrs; conditions: ATCC 25922, 24 h

Cc1nc(C)c(C(=O)N(c2ccccc2)C(C(=O)NC2CCCCC2)c2cccc(Cl)c2)s1 (stereo unspecified)
MIC [1]: > 100 µM

Cc1ccc(N(C(=O)c2sc(C)nc2C)C(C(=O)NC(C)(C)C)c2ccccc2)c(C)c1 (stereo unspecified)
MIC [1]: > 100 µM

Cc1cccc(N(C(=O)c2ccnc(Cl)c2)C(C(=O)NC2CCCCC2)c2ccccc2)c1C (stereo unspecified)
MIC [1]: > 100 µM

Cc1cccc(N(C(=O)c2ccncc2)C(C(=O)NC2CCCCC2)c2ccncc2)c1C (stereo unspecified)
MIC (Pseudomonas aeruginosa): > 50 µM | MIC [1]: 25 µM (≈ 11.1 µg/mL) | MIC (Acinetobacter baumannii): > 50 µM | MIC (Klebsiella pneumoniae): > 50 µM | MIC (Staphylococcus aureus): > 50 µM | MIC [2]: > 50 µM | MIC [3]: > 50 µM | MIC (Mycobacteroides chelonae): > 50 µM | MIC (Escherichia coli): > 50 µM

Cc1ccc(N(C(=O)c2ccc[nH]2)C(C(=O)NC2CCCCC2)c2ccccc2)cc1 (stereo unspecified)
MIC [1]: 25 µM (≈ 10.4 µg/mL)

Cc1cccc(N(C(=O)c2ccc(Br)o2)C(C(=O)NC2CCCCC2)c2ccccc2)c1C (stereo unspecified)
MIC [1]: > 100 µM

Cc1ccc(N(C(=O)c2ccc[nH]2)C(C(=O)NC2CCCCC2)c2ccncc2)cc1 (stereo unspecified)
MIC (Pseudomonas aeruginosa): > 50 µM | MIC [1]: 25 µM (≈ 10.4 µg/mL) | MIC (Acinetobacter baumannii): > 50 µM | MIC (Klebsiella pneumoniae): > 50 µM | MIC (Staphylococcus aureus): > 50 µM | MIC [2]: > 50 µM | MIC [3]: > 50 µM | MIC (Mycobacteroides chelonae): > 50 µM | MIC (Escherichia coli): > 50 µM

Cc1nc(C)c(C(=O)N(c2ccccc2)C(C(=O)NC2CCCCC2)c2cccc(C(F)(F)F)c2)s1 (stereo unspecified)
MIC [1]: > 100 µM

Cc1nc(C)c(C(=O)N(c2c(C)cccc2C)C(C(=O)NC2CCCCC2)c2ccccc2)s1 (stereo unspecified)
MIC (Pseudomonas aeruginosa): > 50 µM | MIC [1]: 25 µM (≈ 11.9 µg/mL) | MIC (Acinetobacter baumannii): > 50 µM | MIC (Klebsiella pneumoniae): > 50 µM | MIC (Staphylococcus aureus): > 50 µM | MIC [2]: > 50 µM | MIC [3]: > 50 µM | MIC (Mycobacteroides chelonae): > 50 µM | MIC (Escherichia coli): > 50 µM

Cc1ccc(N(C(=O)c2ccncc2)C(C(=O)NC2CCCCC2)c2ccncc2)cc1 (stereo unspecified)
MIC [1]: 25 µM (≈ 10.7 µg/mL)

CCc1ccccc1N(C(=O)c1sc(C)nc1C)C(C(=O)NC1CCCCC1)c1ccccc1 (stereo unspecified)
MIC (Pseudomonas aeruginosa): > 50 µM | MIC [1]: 25 µM (≈ 11.9 µg/mL) | MIC (Acinetobacter baumannii): > 50 µM | MIC (Klebsiella pneumoniae): > 50 µM | MIC (Staphylococcus aureus): > 50 µM | MIC [2]: > 50 µM | MIC [3]: > 50 µM | MIC (Mycobacteroides chelonae): > 50 µM | MIC (Escherichia coli): > 50 µM

Cc1cc(C)cc(N(C(=O)c2sc(C)nc2C)C(C(=O)NC2CCCCC2)c2ccccc2)c1 (stereo unspecified)
MIC [1]: > 100 µM

Cc1nc(C)c(C(=O)N(c2ccccc2)C(C(=O)NC2CCCCC2)c2ccc(C(F)(F)F)cc2)s1 (stereo unspecified)
MIC [1]: > 100 µM

Cc1nc(C)c(C(=O)N(c2cccc(C)c2C)C(C(=O)NC(C)(C)C)c2ccccc2)s1 (stereo unspecified)
MIC [1]: > 100 µM

COc1ccc(C(C(=O)NC2CCCCC2)N(C(=O)c2sc(C)nc2C)c2ccccc2)cc1 (stereo unspecified)
MIC [1]: > 100 µM

Cc1nc(C)c(C(=O)N(c2ccc(C)c(C)c2)C(C(=O)NC2CCCCC2)c2ccccc2)s1 (stereo unspecified)
MIC [1]: > 100 µM

Cc1ccc(N(C(=O)c2sc(C)nc2C)C(C(=O)NC2CCCCC2)c2ccccc2Cl)cc1 (stereo unspecified)
MIC [1]: > 100 µM

COc1ccc(C(C(=O)NC2CCCCC2)N(C(=O)c2sc(C)nc2C)c2ccc(C)cc2)cc1 (stereo unspecified)
MIC [1]: > 100 µM

Cc1nc(C)c(C(=O)N(c2cnc3ccccc3c2)C(C(=O)NC2CCCCC2)c2ccccc2)s1 (stereo unspecified)
MIC [1]: > 100 µM

Cc1cccc(N(C(=O)c2cnc3ccccc3c2)C(C(=O)NC2CCCCC2)c2ccccc2)c1C (stereo unspecified)
MIC [1]: > 100 µM

Cc1ccc(C)c(N(C(=O)c2sc(C)nc2C)C(C(=O)NC2CCCCC2)c2ccccc2)c1 (stereo unspecified)
MIC [1]: > 100 µM

Cc1ccc(N(C(=O)c2sc(C)nc2C)C(C(=O)Nc2cccc3ccccc23)c2ccccc2)cc1 (stereo unspecified)
MIC [1]: > 100 µM

Cc1ccc(N(C(=O)c2sc(C)nc2C)C(C(=O)NC2CCCCC2)c2ccc(C(F)(F)F)cc2)cc1 (stereo unspecified)
MIC [1]: > 100 µM

Cc1ccc(N(C(=O)c2sc(C)nc2C)C(C(=O)NC(C)(C)C)c2ccccc2)cc1 (stereo unspecified)
MIC [1]: > 100 µM

Cc1nc(C)c(C(=O)N(c2ccccc2)C(C(=O)NC2CCCCC2)c2ccccc2)s1 (stereo unspecified)
MIC [1]: > 100 µM

C[C@H]1COc2c(N3CCN(C)CC3)c(F)cc3c(=O)c(C(=O)O)cn1c23 [LEVOFLOXACIN]
MIC (Pseudomonas aeruginosa): 1 µM (≈ 0.361 µg/mL) | MIC (Acinetobacter baumannii): 8 µM (≈ 2.89 µg/mL) | MIC (Klebsiella pneumoniae): 64 µM (≈ 23.1 µg/mL) | MIC (Staphylococcus aureus): 0.25 µM (≈ 0.0903 µg/mL) | MIC [2]: < 0.03 µM | MIC [3]: 64 µM (≈ 23.1 µg/mL) | MIC (Mycobacteroides chelonae): 0.25 µM (≈ 0.0903 µg/mL) | MIC (Escherichia coli): < 0.03 µM

Cc1cccc(N(C(=O)c2ccco2)C(C(=O)NC2CCCCC2)c2ccccc2)c1C (stereo unspecified)
MIC [1]: > 100 µM
